Data reported in patent US10590422B2, “Anticancer therapeutic intervention” (PHYZAT BIOPHARMACEUTICALS, LDA., priority 2017, dated 2020).

How the values were obtained:
ASCT2 mRNA = experiment: ASCT2 gene expression (RT-qPCR) after ASCT2 gene silencing in human colon cancer HTC-116 cells; type: cell-based; conditions: treatment 6 h
Method: (§1) SK-HEP-1, T24, HT-1080 and HCT-116 cell lines were maintained in a humidified atmosphere of 5% CO2 at 37° C. SK-HEP-1 cells were grown in RPMI-1640 (Sigma, St. Louis, Mo.) supplemented with 20% fetal bovine serum (FBS) (Gibco, UK), 100 U/mL penicillin G, 0.25 μg/mL amphotericin B, 100 μg/mL streptomycin (Gibco, UK), 25 mM sodium bicarbonate (Merck, Germany) and 25 mM N-2-hydroxyethylpiperazine-N′-2-ethanosulfonic acid (HEPES) (Sigma, St. Louis, Mo.). T24 and HT-1080 cells were grown, respectively, in Dulbecco's Modified Eagle's Medium (DMEM)—high glucose (Sigma, St. Louis, Mo.) and DMEM—low glucose (Sigma, St. Louis, Mo.), supplemented with 10% FBS (Gibco, UK), 100 U/mL penicillin G, 0.25 μg/mL amphotericin B, 100 μg/mL streptomycin (Gibco, UK), 25 mM sodium bicarbonate (Merck, Germany) and 25 mM HEPES (Sigma, St. Louis, Mo.). HCT-116 cells were grown in McCoy's 5A (Sigma, St. Louis, Mo.) supplemented with 10% FBS (Gibco, UK), 100 U/mL penicillin G, 0.25 μg/mL amphotericin B, 100 μg/mL streptomycin (Gibco, UK), 25 mM sodium bicarbonate (Merck, Germany) and 25 mM HEPES (Sigma, St. Louis, Mo.). For all cell lines the medium was changed every 2 days, and cells reached confluence 3-4 days after initial seeding. For subculturing, cells were dissociated with 0.25% trypsin-ethylenediaminetetraacetic acid (EDTA) (Sigma, St. Louis, Mo.), split 1:15 or 1:20 and subcultured in a 21-cm^2 growth area (Sarstedt, Germany).
(§2) Total RNA was isolated and purified using the SV Total RNA Isolation System (Promega, USA) according to manufacturer's instructions. RNA quality and concentration were verified in the NanoDrop ND1000 Spectrophotometer (Thermo Scientific, USA), and RNA integrity and genomic DNA contamination were evaluated by agarose gel electrophoresis. Total RNA (1 μg) was converted into cDNA using the Maxima Scientific First Strand cDNA Synthesis Kit for RT-qPCR (Thermo Scientific, USA), according to instructions. The following protocol was used: 1st step, 10 min at 25° C.; 2nd step, 15 min at 50° C.; 3rd step, 5 min at 85° C. cDNA was used for qPCR analysis using Maxima SYBR Green qPCR Master Mix (Thermo Scientific, USA) in the StepOnePlus instrument (Applied Biosystems, USA). QuantiTect Primer Assay for LAT1 and ASCT2 and for the endogenous control gene GAPDH (Quiagen, Germany) were used. The qPCR reaction was performed in 96-well PCR plates (Sarstedt, Germany) as follows: one cycle of 10 min at 95° C., followed by 40 PCR cycles at 95° C. 15 s and 60° C. 60 s. […] No template controls were always evaluated for each target gene. Quantification cycle (Cq) values were generated automatically by the StepOnePlus 2.3 Software and the ratio of the target gene was expressed in comparison to the endogenous control gene GAPDH.
(§3) Cells were plated in 24-well (Sarstedt, Germany) or 6-well plates (Sarstedt, Germany) or 96-well plates with black walls clear bottom (BD Biosciences, USA) and incubated 24 h under normal growth conditions. siRNAs against ASCT2 and transfection agent were diluted at desired concentrations and mixed according to transfection agent manufacturer's instructions. The mixture was incubated 20 min at RT for siRNA-complex formation, after which it was added to the cells and incubated at 37° C., 5% CO2. After the incubation period, serum and antibiotic was restored and cells were further incubated at normal conditions for the desired time points until evaluation of ASCT2 activity or ASCT2 expression (immunoblotting and RT-qPCR).

LAT1 = LAT1 activity: [^14C]-L-leucine uptake in fibrosarcoma HT-1080 cells after LAT1 gene silencing; type: cell-based, human; conditions: 5 nM siRNA, treatment 6 h, at 48 h, 0.4% Lipofectamine 2000, FIG. 8A
Method: Cells were plated in 24-well plates (Sarstedt, Germany) and grown until confluence was reached. On the day of the experiment, cell culture medium was aspirated and cells were preincubated for 15 min in Hanks' medium (NaCl 140 mM, KCl 5 mM, MgSO4.7H2O 0.8 mM, K2HPO4 0.33 mM, KH2PO4 0.44 mM, MgCl2.6H2O 1 mM, CaCl2) 0.025 mM, Tris-HCl 9.75 mM, pH 7.4). Uptake was initiated by addition of Hanks' medium with 0.25 μM [^14C]-L-leucine in the absence and in the presence of 3 mM unlabeled L-leucine. During preincubation and incubation cells were continuously shaken and maintained at 37° C. Uptake was terminated after 1 min by rapid removal of uptake solution by means of a vacuum pump connected to a Pasteur pipette, followed by a rapid wash with Hanks' medium. Subsequently, cells were solubilized in 0.1% vol/vol Triton X-100 (dissolved in 5 mM Tris-HCl, pH 7.4), and radioactivity was measured by liquid scintillation counting.
as §3, with “LAT1” for “ASCT2”

LAT1 mRNA = experiment: LAT1 gene expression (RT-qPCR) after LAT1 gene silencing in human colon cancer HTC-116 cells; type: cell-based; conditions: treatment 6 h
Method: as §1, §2
as §3, with “LAT1” for “ASCT2”

| Substance | ASCT2 mRNA relative abundance (ASCT2 mRNA; 5 or 25 nM siRNA, at 24 h or 48 h, 0.5% Lipofectamine 2000, FIGS. 9B and 9C) | ASCT2 mRNA relative abundance (ASCT2 mRNA; 72 h, 0.17% Lipofectamine 2000 or 0.1% Injectin, FIG. 20A) | [^14C]-L-leucine (0.25 μM) uptake at initial rate of uptake (1 min) (LAT1) | LAT1 mRNA relative abundance (LAT1 mRNA; 5, 25 and 45 nM, concentration dependent, 0.5% Lipofectamine 2000, Lipofectamine RNAiMAX or Injectin, at 72 h, FIGS. 10A and 10B) | LAT1 mRNA relative abundance (LAT1 mRNA; 5 or 25 nM siRNA, at 24 h or 48 h, 0.5% Lipofectamine 2000, FIGS. 9A and 9C) | LAT1 mRNA relative abundance (LAT1 mRNA; 72 h, 0.17% Lipofectamine 2000 or 0.1% Injectin, FIG. 19A) |
| --- | --- | --- | --- | --- | --- | --- |
| 278/403/404 (sense UGCCACGGUCGCCUCUGAGAATT; antisense UUCUCAGAGGCGACCGUGGCATT; siRNA; sugars by position and backbone not given here; further chemistry not fully specified) | decreased | significantly decreased | – | – | – | – |
| 58/387/388 (sense CUUCGCCACCUACCUGCUCAATT; antisense UUGAGCAGGUAGGUGGCGAAGTT; siRNA; sugars by position and backbone not given here; further chemistry not fully specified) | – | – | decreased | decreased | decreased | significantly decreased |
